Assay: recombinant UMI read abundance after kanamycin selection (control-corrected) (log10(CPM+1)); higher = more efficient recombination; extreme values may be limits of the assay; sequences stand for … in AGTGCAGAGAAAATCGGCCAGTTTTCTCTGCCTGCAGTCCGCATGCCGTGGGACCCCTTGGGTTCTAACCTGTTGCCTAGATTTATGCAGCGGACTGCCTTTCTCCCAAAGTGATAAACCGG…AGGTTGGTTTCACT; site = the 11-nt donor
Summary of the method: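 Two replicates each of selected and unselected plating were used in this pooled Escherichia coli screen of donor and donor-binding-loop pairs for the IS621 bridge recombinase. Selection was with IPTG (0.07 mM) and kanamycin. Counts of recombinant UMIs, amplified across the donor–target junction, were converted to CPM, averaged, scaled by control-derived factors and reported as log10(CPM+1).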
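Also: IS621 bridge recombinase in Escherichia coli cells against a fixed T5 target plasmid.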

## TAGCATACATGGACCGGTTTTCCCGGTAATCCGTATTTGCA (site TAGCATACTTG)
  recombinant UMI read abundance (log10): 1.62

## TAGCATACATGGACCGGTTTTCCCGGTAATCCGTATTTGCA (site TAGGATACTTG)
  recombinant UMI read abundance (log10): 0

## TAGCATACATGGACCGGTTTTCCCGGTAATCCGTATTTGCA (site TAGTATACTTG)
  recombinant UMI read abundance (log10): 0.507

## TAGCATTCATGGACCGGTTTTCCCGGTAATCCGTATTTGGT (site TAGCATTCTAC)
  recombinant UMI read abundance (log10): 1.23

## TAGCATTCATGGACCGGTTTTCCCGGTAATCCGTATTTGGT (site TAGCCTTCTAC)
  recombinant UMI read abundance (log10): 0.00694

## TAGCATTCATGGACCGGTTTTCCCGGTAATCCGTATTTGGT (site TAGCGTTCTAC)
  recombinant UMI read abundance (log10): 0.0097

## TAGCATTCATGGACCGGTTTTCCCGGTAATCCGTATTTGGT (site TAGCTTTCTAC)
  recombinant UMI read abundance (log10): 0

## TAGCCATCATGGACCGGTTTTCCCGGTAATCCGTATTTGGT (site TAGCCATCTAC)
  recombinant UMI read abundance (log10): 0.74

## TAGCCATCATGGACCGGTTTTCCCGGTAATCCGTATTTGGT (site TAGCCCTCTAC)
  recombinant UMI read abundance (log10): 0.0197

## TAGCCATCATGGACCGGTTTTCCCGGTAATCCGTATTTGGT (site TAGCCGTCTAC)
  recombinant UMI read abundance (log10): 0.0186

## TAGCCATCATGGACCGGTTTTCCCGGTAATCCGTATTTGGT (site TAGCCTTCTAC)
  recombinant UMI read abundance (log10): 0.0124

## TAGCCCTCATGGACCGGTTTTCCCGGTAATCCGTATTTGGT (site TAGCCATCTAC)
  recombinant UMI read abundance (log10): 0.00538

## TAGCCCTCATGGACCGGTTTTCCCGGTAATCCGTATTTGGT (site TAGCCCTCTAC)
  recombinant UMI read abundance (log10): 1.12

## TAGCCCTCATGGACCGGTTTTCCCGGTAATCCGTATTTGGT (site TAGCCGTCTAC)
  recombinant UMI read abundance (log10): 0.0119

## TAGCCCTCATGGACCGGTTTTCCCGGTAATCCGTATTTGGT (site TAGCCTTCTAC)
  recombinant UMI read abundance (log10): 0

## TAGCCGACATGGACCGGTTTTCCCGGTAATCCGTATTTGAC (site TAGCCGACTGT)
  recombinant UMI read abundance (log10): 2.63

## TAGCCGGCATGGACCGGTTTTCCCGGTAATCCGTATTTGGC (site TAGCCGGCTGC)
  recombinant UMI read abundance (log10): 1.62

## TAGCCGGCATGGACCGGTTTTCCCGGTAATCCGTATTTGGC (site TCGCCGGCTGC)
  recombinant UMI read abundance (log10): 0

## TAGCCGGCATGGACCGGTTTTCCCGGTAATCCGTATTTGGC (site TGGCCGGCTGC)
  recombinant UMI read abundance (log10): 0

## TAGCCGGCATGGACCGGTTTTCCCGGTAATCCGTATTTGGC (site TTGCCGGCTGC)
  recombinant UMI read abundance (log10): 0

## TAGCCTCCATGGACCGGTTTTCCCGGTAATCCGTATTTGTT (site TAGCCTCCTAA)
  recombinant UMI read abundance (log10): 0.0845

## TAGCCTGCATGGACCGGTTTTCCCGGTAATCCGTATTTGAT (site TAGCCTGCTAT)
  recombinant UMI read abundance (log10): 0.0647

## TAGCGCGCATGGACCGGTTTTCCCGGTAATCCGTATTTGTC (site TAGCGCGCTGA)
  recombinant UMI read abundance (log10): 2.77

## TAGCTAGCATGGACCGGTTTTCCCGGTAATCCGTATTTGAC (site TAGCTAGCTAT)
  recombinant UMI read abundance (log10): 0.556

## TAGCTAGCATGGACCGGTTTTCCCGGTAATCCGTATTTGAC (site TAGCTAGCTCT)
  recombinant UMI read abundance (log10): 0

## TAGCTAGCATGGACCGGTTTTCCCGGTAATCCGTATTTGAC (site TAGCTAGCTGT)
  recombinant UMI read abundance (log10): 2.34

## TAGCTAGCATGGACCGGTTTTCCCGGTAATCCGTATTTGAC (site TAGCTAGCTTT)
  recombinant UMI read abundance (log10): 0.388

## TAGCTAGCATGGACCGGTTTTCCCGGTAATCCGTATTTGAG (site TAGCTAGCTAT)
  recombinant UMI read abundance (log10): 0.457

## TAGCTAGCATGGACCGGTTTTCCCGGTAATCCGTATTTGAG (site TAGCTAGCTCT)
  recombinant UMI read abundance (log10): 0.921

## TAGCTAGCATGGACCGGTTTTCCCGGTAATCCGTATTTGAG (site TAGCTAGCTGT)
  recombinant UMI read abundance (log10): 0

## TAGCTAGCATGGACCGGTTTTCCCGGTAATCCGTATTTGAG (site TAGCTAGCTTT)
  recombinant UMI read abundance (log10): 0.014

## TAGCTAGCATGGACCGGTTTTCCCGGTAATCCGTATTTGGA (site TAGCTAGCTTA)
  recombinant UMI read abundance (log10): 0.347

## TAGCTAGCATGGACCGGTTTTCCCGGTAATCCGTATTTGGA (site TAGCTAGCTTC)
  recombinant UMI read abundance (log10): 0.303

## TAGCTAGCATGGACCGGTTTTCCCGGTAATCCGTATTTGGA (site TAGCTAGCTTG)
  recombinant UMI read abundance (log10): 0.447

## TAGCTAGCATGGACCGGTTTTCCCGGTAATCCGTATTTGGA (site TAGCTAGCTTT)
  recombinant UMI read abundance (log10): 0.866

## TAGCTCACATGGACCGGTTTTCCCGGTAATCCGTATTTGGC (site TAGCTCACTGC)
  recombinant UMI read abundance (log10): 1.5

## TAGCTCGCATGGACCGGTTTTCCCGGTAATCCGTATTTGAA (site TAGCTAGCTTT)
  recombinant UMI read abundance (log10): 0.0173

## TAGCTCGCATGGACCGGTTTTCCCGGTAATCCGTATTTGAA (site TAGCTCGCTTT)
  recombinant UMI read abundance (log10): 1.27

## TAGCTCGCATGGACCGGTTTTCCCGGTAATCCGTATTTGAA (site TAGCTGGCTTT)
  recombinant UMI read abundance (log10): 0.0219

## TAGCTCGCATGGACCGGTTTTCCCGGTAATCCGTATTTGAA (site TAGCTTGCTTT)
  recombinant UMI read abundance (log10): 0.0127

## TAGGAACCATGGACCGGTTTTCCCGGTAATCCGTATTTGCG (site TAGGAAACTCG)
  recombinant UMI read abundance (log10): 0.374

## TAGGAACCATGGACCGGTTTTCCCGGTAATCCGTATTTGCG (site TAGGAACCTCG)
  recombinant UMI read abundance (log10): 0.478

## TAGGAACCATGGACCGGTTTTCCCGGTAATCCGTATTTGCG (site TAGGAAGCTCG)
  recombinant UMI read abundance (log10): 0.00966

## TAGGAACCATGGACCGGTTTTCCCGGTAATCCGTATTTGCG (site TAGGAATCTCG)
  recombinant UMI read abundance (log10): 0.681

## TAGGAAGCATGGACCGGTTTTCCCGGTAATCCGTATTTGCG (site TAGGAAACTCG)
  recombinant UMI read abundance (log10): 2.32

## TAGGAAGCATGGACCGGTTTTCCCGGTAATCCGTATTTGCG (site TAGGAACCTCG)
  recombinant UMI read abundance (log10): 0.00974

## TAGGAAGCATGGACCGGTTTTCCCGGTAATCCGTATTTGCG (site TAGGAAGCTCG)
  recombinant UMI read abundance (log10): 2.73

## TAGGAAGCATGGACCGGTTTTCCCGGTAATCCGTATTTGCG (site TAGGAATCTCG)
  recombinant UMI read abundance (log10): 1.85

## TAGGAATCATGGACCGGTTTTCCCGGTAATCCGTATTTGCC (site TAGGAATCTAG)
  recombinant UMI read abundance (log10): 1.1

## TAGGAATCATGGACCGGTTTTCCCGGTAATCCGTATTTGCC (site TAGGAATCTCG)
  recombinant UMI read abundance (log10): 0.458

## TAGGAATCATGGACCGGTTTTCCCGGTAATCCGTATTTGCC (site TAGGAATCTGG)
  recombinant UMI read abundance (log10): 2.68

## TAGGAATCATGGACCGGTTTTCCCGGTAATCCGTATTTGCC (site TAGGAATCTTG)
  recombinant UMI read abundance (log10): 1.74

## TAGGACTCATGGACCGGTTTTCCCGGTAATCCGTATTTGCG (site TAGGAATCTCG)
  recombinant UMI read abundance (log10): 1.98

## TAGGACTCATGGACCGGTTTTCCCGGTAATCCGTATTTGCG (site TAGGACTCTCG)
  recombinant UMI read abundance (log10): 2.75

## TAGGACTCATGGACCGGTTTTCCCGGTAATCCGTATTTGCG (site TAGGAGTCTCG)
  recombinant UMI read abundance (log10): 1.05

## TAGGACTCATGGACCGGTTTTCCCGGTAATCCGTATTTGCG (site TAGGATTCTCG)
  recombinant UMI read abundance (log10): 1.05

## TAGGTACCATGGACCGGTTTTCCCGGTAATCCGTATTTGTT (site TAGGTACCTAA)
  recombinant UMI read abundance (log10): 0.0119

## TAGGTTTCATGGACCGGTTTTCCCGGTAATCCGTATTTGCG (site TAGGTTTCTCG)
  recombinant UMI read abundance (log10): 1.99

## TAGTAATCATGGACCGGTTTTCCCGGTAATCCGTATTTGCG (site TAGAAATCTCG)
  recombinant UMI read abundance (log10): 1.56

## TAGTAATCATGGACCGGTTTTCCCGGTAATCCGTATTTGCG (site TAGCAATCTCG)
  recombinant UMI read abundance (log10): 2.29

## TAGTAATCATGGACCGGTTTTCCCGGTAATCCGTATTTGCG (site TAGGAATCTCG)
  recombinant UMI read abundance (log10): 1.47

## TAGTAATCATGGACCGGTTTTCCCGGTAATCCGTATTTGCG (site TAGTAATCTCG)
  recombinant UMI read abundance (log10): 2.65

## TAGTACTCATGGACCGGTTTTCCCGGTAATCCGTATTTGAT (site TAGTACTCTAT)
  recombinant UMI read abundance (log10): 2.53

## TAGTATACATGGACCGGTTTTCCCGGTAATCCGTATTTGTG (site TAGTATACTCA)
  recombinant UMI read abundance (log10): 0.807

## TAGTCAACATGGACCGGTTTTCCCGGTAATCCGTATTTGTT (site TAGTCAACTAA)
  recombinant UMI read abundance (log10): 0.0293

## TAGTCAGCATGGACCGGTTTTCCCGGTAATCCGTATTTGCT (site TAGTCAGCTAG)
  recombinant UMI read abundance (log10): 0.957

## TAGTCTGCATGGACCGGTTTTCCCGGTAATCCGTATTTGAG (site TAGTCTGCTCT)
  recombinant UMI read abundance (log10): 0.338

## TAGTGAGCATGGACCGGTTTTCCCGGTAATCCGTATTTGGG (site TAATGAGCTCC)
  recombinant UMI read abundance (log10): 0.00708

From the supplement of paper PMC11208160
